Experimental data published in patent publication US5053070A, “Pyrimidine derivatives, preparation processes thereof, herbicide containing the same, and herbicidal compositions containing the same along with other active ingredient” (Mitsui Toatsu Chemicals, Incorporated, priority 1988, dated 1991).
Each block holds one compound with its values, some of them ahead of it.

Columns and labels:
[1] = tested on: Sagittaria pygmaea; experiment: Treatment of soil under submerged condition, pre-emergence (Test 4); format: in vivo; conditions: 30 g ai/a granule, 30 days later
In short: (§1)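 Weeds were seeded or planted in submerged soil, with 2-3 leaf rice seedlings transplanted into the same pots. One day later, before weed emergence, a granule formulation of the test composition was applied. Weed damage and rice injury were scored 30 days after treatment.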

[2] = tested on: barnyardgrass; experiment: as above; format: in vivo; conditions: 30 g ai/a granule, 30 days later
In short: as §1

[3] = tested on: bulrush; experiment: as above; format: in vivo; conditions: 30 g ai/a granule, 30 days later
In short: as §1

[4] = tested on: rice; experiment: Treatment of soil under submerged condition, pre-emergence (Test 4), injury; format: in vivo; conditions: 30 g ai/a granule, 30 days later
In short: as §1

[5] = tested on: green foxtail; experiment: Upland soil application test (Test 2); format: in vivo; conditions: 30 g ai/a, soil spray before emergence, 30 days later
In short: (§2)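 Weed damage was rated at 30 days by comparing air-dried plant weights against untreated controls. Compound had been applied as a water-diluted wettable powder (10 l per are), sprayed on the soil surface one day after sowing, before emergence, with weed seed incorporated in upland field soil.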

[6] = tested on: foxtail meadow; experiment: Upland soil application test (Test 2); format: in vivo; conditions: 30 g ai/a, soil spray before emergence, 30 days later
In short: as §2

[7] = tested on: johnsongrass; experiment: Upland soil application test (Test 2); format: in vivo; conditions: 30 g ai/a, soil spray before emergence, 30 days later
In short: as §2

[8] = tested on: large crabgrass; experiment: Upland soil application test (Test 2); format: in vivo; conditions: 30 g ai/a, soil spray before emergence, 30 days later
In short: as §2

[9] = tested on: common lambsquarters; experiment: Upland soil application test (Test 2); format: in vivo; conditions: 30 g ai/a, soil spray before emergence, 30 days later
In short: as §2

[10] = tested on: barnyardgrass; experiment: Upland soil application test (Test 2); format: in vivo; conditions: 30 g ai/a, soil spray before emergence, 30 days later
In short: as §2

[11] = tested on: redroot pigweed; experiment: Upland soil application test (Test 2); format: in vivo; conditions: 30 g ai/a, soil spray before emergence, 30 days later
In short: as §2

[12] = tested on: ALS (acetolactate syntase); experiment: ALS enzyme assay (Test 1); format: biochemical, pea; conditions: 1,000 ppm (0.5 mg/0.5 ml)
In short: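 Partially purified ALS from dark-grown pea and barnyardgrass seedlings incubated 1 h at 30° C with pyruvate, TPP, MgCl2 and FAD. Compounds tested at 1,000 ppm (0.5 mg/0.5 ml). Acetoin formed detected colorimetrically at 525 nm via creatine/α-naphthol, relative to blank and acid-stopped controls.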

[13] = tested on: Sagittaria pygmaea; experiment: Treatment of soil under submerged condition, post-emergence (Test 5); format: in vivo; conditions: 30 g ai/a granule, 30 days later
In short: (§3)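 Weeds seeded or tubers planted in flooded soil in Wagner pots, with 2–3-leaf rice seedlings transplanted in pairs and grown in greenhouse. At barnyardgrass two-leaf stage, pots received a granule of the test composition at a predetermined amount. Weed emergence and rice injury were scored 30 days later.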

[14] = tested on: barnyardgrass; experiment: as above; format: in vivo; conditions: 30 g ai/a granule, post-emergence (barnyardgrass two-leaf stage), 30 days later
In short: as §3

[15] = tested on: bulrush; experiment: as above; format: in vivo; conditions: 30 g ai/a granule, 30 days later
In short: as §3

[16] = tested on: peanut; experiment: Upland soil application test (Test 2), crop injury; format: in vivo; conditions: 30 g ai/a, soil spray before emergence, 30 days later
In short: (§4)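 Pre-emergence test in upland soil pots with weed seeds mixed into the soil; one day after seeding, wettable-powder formulation diluted in water and sprayed onto the soil surface at 10 l per are. Damage scored 30 days later from air-dried weight relative to untreated pots.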

[17] = tested on: cotton; experiment: Upland soil application test (Test 2), crop injury; format: in vivo; conditions: 30 g ai/a, soil spray before emergence, 30 days later
In short: as §4

[18] = tested on: soybean; experiment: Upland soil application test (Test 2), crop injury; format: in vivo; conditions: 30 g ai/a, soil spray before emergence, 30 days later
In short: as §4

Inhibitory activity (%) Pea [12]: 0%
SMILES: C=C(Cl)CON=Cc1ccccc1Oc1nc(OC)cc(OC)n1 [Compound No. 14]
Herbicidal effects Sagittaria Pygmaea [1]: 5 (0-5 (Death))
Herbicidal effects Barnyardgrass [2]: 5 (0-5 (Death))
Herbicidal effects Bulrush [3]: 3 (11-40 (Medium damages))
Injury Rice [4]: 0 (91-100 (No damages))
Herbicidal effects Green foxtail [5]: 5 (0-5 (Death))
Herbicidal effects Foxtail meadow [6]: 5 (0-5 (Death))
Herbicidal effects Johnsongrass [7]: 5 (0-5 (Death))
Herbicidal effects Large crabgrass [8]: 5 (0-5 (Death))
Herbicidal effects Common lambsquarters [9]: 4 (6-10 (Severe damages))
Herbicidal effects Barnyardgrass [10]: 5 (0-5 (Death))
Herbicidal effects Redroot pigweed [11]: 4 (6-10 (Severe damages))
Herbicidal effects Sagittaria Pygmaea [13]: 4 (6-10 (Severe damages))
Herbicidal effects Barnyardgrass [14]: 5 (0-5 (Death))
Herbicidal effects Bulrush [15]: 5 (0-5 (Death))
Injury Peanut [16]: 0 (91-100 (No damages))
Injury Cotton [17]: 0 (91-100 (No damages))
Injury Soybean [18]: 0 (91-100 (No damages))

Inhibitory activity (%) Pea [12]: 0%
SMILES: C=CC(C)ON=Cc1ccccc1Oc1nc(OC)cc(OC)n1 (stereo not drawn) [Compound No. 2]
Herbicidal effects Sagittaria Pygmaea [1]: 4 (6-10 (Severe damages))
Herbicidal effects Barnyardgrass [2]: 5 (0-5 (Death))
Herbicidal effects Bulrush [3]: 4 (6-10 (Severe damages))
Injury Rice [4]: 1 (71-90 (Slight damages))
Herbicidal effects Green foxtail [5]: 5 (0-5 (Death))
Herbicidal effects Foxtail meadow [6]: 5 (0-5 (Death))
Herbicidal effects Johnsongrass [7]: 5 (0-5 (Death))
Herbicidal effects Large crabgrass [8]: 5 (0-5 (Death))
Herbicidal effects Common lambsquarters [9]: 4 (6-10 (Severe damages))
Herbicidal effects Barnyardgrass [10]: 5 (0-5 (Death))
Herbicidal effects Redroot pigweed [11]: 4 (6-10 (Severe damages))
Herbicidal effects Sagittaria Pygmaea [13]: 5 (0-5 (Death))
Herbicidal effects Barnyardgrass [14]: 5 (0-5 (Death))
Herbicidal effects Bulrush [15]: 5 (0-5 (Death))
Injury Peanut [16]: 0 (91-100 (No damages))
Injury Cotton [17]: 0 (91-100 (No damages))
Injury Soybean [18]: 0 (91-100 (No damages))

Inhibitory activity (%) Pea [12]: 0%
SMILES: COc1cc(OC)nc(Oc2ccccc2C=NOCc2ccccc2Cl)n1 [compound 16]
Herbicidal effects Sagittaria Pygmaea [1]: 4 (6-10 (Severe damages))
Herbicidal effects Barnyardgrass [2]: 4 (6-10 (Severe damages))
Herbicidal effects Bulrush [3]: 3 (11-40 (Medium damages))
Injury Rice [4]: 0 (91-100 (No damages))
Herbicidal effects Green foxtail [5]: 3 (11-40 (Medium damages))
Herbicidal effects Foxtail meadow [6]: 3 (11-40 (Medium damages))
Herbicidal effects Johnsongrass [7]: 3 (11-40 (Medium damages))
Herbicidal effects Large crabgrass [8]: 4 (6-10 (Severe damages))
Herbicidal effects Common lambsquarters [9]: 3 (11-40 (Medium damages))
Herbicidal effects Barnyardgrass [10]: 3 (11-40 (Medium damages))
Herbicidal effects Redroot pigweed [11]: 3 (11-40 (Medium damages))
Herbicidal effects Sagittaria Pygmaea [13]: 3 (11-40 (Medium damages))
Herbicidal effects Barnyardgrass [14]: 4 (6-10 (Severe damages))
Herbicidal effects Bulrush [15]: 4 (6-10 (Severe damages))
Injury Peanut [16]: 0 (91-100 (No damages))
Injury Cotton [17]: 0 (91-100 (No damages))
Injury Soybean [18]: 0 (91-100 (No damages))

Second part, the compound before the results:

SMILES: COc1cc(OC)nc(Oc2ccccc2C=NOCC=Cc2cccc(Cl)c2Cl)n1 [compound 41]
Herbicidal effects Sagittaria Pygmaea [1]: 5 (0-5 (Death))
Herbicidal effects Barnyardgrass [2]: 5 (0-5 (Death))
Herbicidal effects Bulrush [3]: 4 (6-10 (Severe damages))
Injury Rice [4]: 0 (91-100 (No damages))
Herbicidal effects Green foxtail [5]: 4 (6-10 (Severe damages))
Herbicidal effects Foxtail meadow [6]: 4 (6-10 (Severe damages))
Herbicidal effects Johnsongrass [7]: 4 (6-10 (Severe damages))
Herbicidal effects Large crabgrass [8]: 5 (0-5 (Death))
Herbicidal effects Common lambsquarters [9]: 4 (6-10 (Severe damages))
Herbicidal effects Barnyardgrass [10]: 5 (0-5 (Death))
Herbicidal effects Redroot pigweed [11]: 5 (0-5 (Death))
Inhibitory activity (%) Pea [12]: 0%
Herbicidal effects Sagittaria Pygmaea [13]: 4 (6-10 (Severe damages))
Herbicidal effects Barnyardgrass [14]: 5 (0-5 (Death))
Herbicidal effects Bulrush [15]: 4 (6-10 (Severe damages))
Injury Peanut [16]: 0 (91-100 (No damages))
Injury Cotton [17]: 0 (91-100 (No damages))
Injury Soybean [18]: 0 (91-100 (No damages))

SMILES: COc1cc(OC)nc(Oc2ccccc2C=NOCC=Cc2ccc(Cl)c(Cl)c2)n1 [compound 31]
Herbicidal effects Sagittaria Pygmaea [1]: 4 (6-10 (Severe damages))
Herbicidal effects Barnyardgrass [2]: 3 (11-40 (Medium damages))
Herbicidal effects Bulrush [3]: 3 (11-40 (Medium damages))
Injury Rice [4]: 0 (91-100 (No damages))
Herbicidal effects Green foxtail [5]: 4 (6-10 (Severe damages))
Herbicidal effects Foxtail meadow [6]: 4 (6-10 (Severe damages))
Herbicidal effects Johnsongrass [7]: 5 (0-5 (Death))
Herbicidal effects Large crabgrass [8]: 4 (6-10 (Severe damages))
Herbicidal effects Common lambsquarters [9]: 3 (11-40 (Medium damages))
Herbicidal effects Barnyardgrass [10]: 4 (6-10 (Severe damages))
Herbicidal effects Redroot pigweed [11]: 3 (11-40 (Medium damages))
Inhibitory activity (%) Pea [12]: 0%
Herbicidal effects Sagittaria Pygmaea [13]: 4 (6-10 (Severe damages))
Herbicidal effects Barnyardgrass [14]: 5 (0-5 (Death))
Herbicidal effects Bulrush [15]: 4 (6-10 (Severe damages))
Injury Peanut [16]: 0 (91-100 (No damages))
Injury Cotton [17]: 0 (91-100 (No damages))
Injury Soybean [18]: 0 (91-100 (No damages))

SMILES: COc1cc(OC)nc(Oc2ccccc2C=NOCC=Cc2c(F)cccc2F)n1 [compound 33]
Herbicidal effects Sagittaria Pygmaea [1]: 5 (0-5 (Death))
Herbicidal effects Barnyardgrass [2]: 4 (6-10 (Severe damages))
Herbicidal effects Bulrush [3]: 4 (6-10 (Severe damages))
Injury Rice [4]: 0 (91-100 (No damages))
Herbicidal effects Green foxtail [5]: 5 (0-5 (Death))
Herbicidal effects Foxtail meadow [6]: 5 (0-5 (Death))
Herbicidal effects Johnsongrass [7]: 5 (0-5 (Death))
Herbicidal effects Large crabgrass [8]: 5 (0-5 (Death))
Herbicidal effects Common lambsquarters [9]: 4 (6-10 (Severe damages))
Herbicidal effects Barnyardgrass [10]: 5 (0-5 (Death))
Herbicidal effects Redroot pigweed [11]: 4 (6-10 (Severe damages))
Inhibitory activity (%) Pea [12]: 0%
Herbicidal effects Sagittaria Pygmaea [13]: 4 (6-10 (Severe damages))
Herbicidal effects Barnyardgrass [14]: 5 (0-5 (Death))
Herbicidal effects Bulrush [15]: 5 (0-5 (Death))
Injury Peanut [16]: 0 (91-100 (No damages))
Injury Cotton [17]: 0 (91-100 (No damages))
Injury Soybean [18]: 0 (91-100 (No damages))

SMILES: COc1cc(OC)nc(Oc2ccccc2C=NOCC=Cc2ccccc2C)n1 [Compound No. 39]
Herbicidal effects Sagittaria Pygmaea [1]: 4 (6-10 (Severe damages))
Herbicidal effects Barnyardgrass [2]: 5 (0-5 (Death))
Herbicidal effects Bulrush [3]: 4 (6-10 (Severe damages))
Injury Rice [4]: 1 (71-90 (Slight damages))
Herbicidal effects Green foxtail [5]: 5 (0-5 (Death))
Herbicidal effects Foxtail meadow [6]: 5 (0-5 (Death))
Herbicidal effects Johnsongrass [7]: 5 (0-5 (Death))
Herbicidal effects Large crabgrass [8]: 5 (0-5 (Death))
Herbicidal effects Common lambsquarters [9]: 4 (6-10 (Severe damages))
Herbicidal effects Barnyardgrass [10]: 4 (6-10 (Severe damages))
Herbicidal effects Redroot pigweed [11]: 5 (0-5 (Death))
Inhibitory activity (%) Pea [12]: 0%
Herbicidal effects Sagittaria Pygmaea [13]: 4 (6-10 (Severe damages))
Herbicidal effects Barnyardgrass [14]: 5 (0-5 (Death))
Herbicidal effects Bulrush [15]: 4 (6-10 (Severe damages))
Injury Peanut [16]: 0 (91-100 (No damages))
Injury Cotton [17]: 0 (91-100 (No damages))
Injury Soybean [18]: 0 (91-100 (No damages))
